Type in all cases: cell-based, human
Test [1] concerns VEGF C.
Test [2] deals with VEGF B.
Test [3] has as its system VEGF A.

`[Cl-].[Cl-].[Co+2]` [CoCl2]: in test [1], the “VEGF C gene expression ratio treated/untreated (up)” value is reported as “up 3.0 x”. For the same compound, the “VEGF B gene expression ratio treated/untreated (up)” value in test [2] is “up 1.4 x”. In addition, the “VEGF A gene expression ratio treated/untreated (up)” value in test [3] was “up 3.4 x”.

With “YGRKKRRQRRR-DLDLEMLA(Hyp)YIPMDDDFQL [ODD peptide]”, in test [1], the “VEGF C gene expression ratio treated/untreated (up)” value is listed as “up 4.4 x”. In addition, the “VEGF B gene expression ratio treated/untreated (up)” value in test [2] is “up 1.4 x”. Besides, in test [3], the “VEGF A gene expression ratio treated/untreated (up)” value is listed as “up 3.2 x”.

Source of the values: patent publication US7053046B2 (priority 2001, dated 2006).
